Source: patent US20100251435A1, “METHOD FOR GROWING SUGARCANE” (priority 2007, published 2010)

Key:
Type in all cases: in vivo
[1] = tested on: sugar cane Variety RB 86-7515; experiment: Greenhouse pot test, effect of formulated clothianidin on vigour; settings: carretels; result in words
Experimental: Greenhouse test with sugarcane buds growing in pots were conducted to study the effect of clothianidin equivalent to an application rate of 200 g ai. ha^−1 on “vigour”, evaluating tillers, plant height, leaf width and culm diameter. This trial was conducted on sugar cane Variety RB 86-7515.
1) carretel with one bud treated with clothianidin (200 g ai. ha^−1) 2) carretel with one bud treated with clothianidin (200 g ai. ha^−1)+15% v/v of polymer 3) stalk with 3 buds untreated 4) carretel with one bud untreated+15% v/v of polymer 5) carretel with one bud untreated 6) stalk with 3 buds treated with clothianidin (200 g ai. ha^−1).
Twenty 1 L pots were filled with 16 L of clay soil, 1.6 L of sand and 8 g of nitrogen, 28 g of phosphorus (P2O5) and 16 g of potassium (K2O). Six carretels of 4 cm length with one bud were planted in each pot (treatments 1, 2, 4 and 5). Two stalks with three buds were planted in each control pot (treatments 3 and 6) to simulate conventional planting. A layer of 3 cm of soil was used to cover the carretels. The carretels of treatments 1 and 2 were treated with 200 g ai.ha^−1 of clothianidin, by dipping the carretels in a slurry for 3 min. The stalks were treated simulating a furrow application at 100 L.ha^−1 of slurry. The pots were maintained with adequate moisture during the test. […]

[2] = tested on: sugar cane Variety RB 86-7515; experiment: Greenhouse pot test, effect of formulated fipronil on vigour; settings: result in words
Experimental: Greenhouse test with sugarcane buds growing in pots were conducted to study the effect of fipronil equivalent to an application rate of 200 g. ha^−1 on “vigour”, evaluating tillers, plant height, leaf width and culm diameter on sugar cane Variety RB 86-7515.
Twenty 1 L pots were filled with 16 L of clay soil, 1.6 L of sand and 8 g of nitrogen, 28 g of phosphorus (P2O5) and 16 g of potassium (K2O). Six carretels of 4 cm length with one bud were planted in each pot (treatments 1, 2, 4 and 5). Two stalks with three buds were planted in each control pot (treatments 3 and 6) to simulate conventional planting. A layer of 3 cm of soil was used to cover the carretels. The carretels of treatments 1 and 2 were treated with 200 g ai.ha^−1 of fipronil, by dipping the carretels in the slurry for 3 min, based on the uptake capacity of carretels. The stalks were treated simulating a furrow application at 100 L.ha^−1 of slurry. Experimental design adopted was randomized complete block with four replications. The pots were maintained with adequate moisture during the test. Evaluations of: plant height, leaf width, culm diameter and number of tillers were done at 20, 30 and 42 days after planting.

[3] = tested on: sugar cane Variety RB 86 7515; experiment: Greenhouse pot test, effect of formulated imidacloprid on vigour; settings: result in words
Source text: 1) carretel with one bud treated with Imidacloprid (1200 g. ha^−1) 2) carretel with one bud treated with Imidacloprid (1200 g. ha^−1)+15% v/v of polymer 3) stalk with 3 buds untreated 4) carretel with one bud untreated 5) carretel with one bud untreated+15% v/v of polymer 6) stalk with 3 buds treated with Imidacloprid (1200 g. ha^−1).
Twenty 1 L pots were filled with 16 L of clay soil, 1.6 L of sand and 8 g of nitrogen, 28 g of phosphorus (P2O5) and 16 g of potassium (K2O). Six carretels of 4 cm length with one bud were planted in each pot (treatments 1, 2, 4 and 5). Two stalks with three buds were planted in each control pot (treatments 3 and 6) to simulate conventional planting. A layer of 3 cm of soil was used to cover the carretels. The carretels of treatments 1 and 2 were treated with 1200 g ai.ha^−1 of imidacloprid, by dipping the carretels in the slurry for 3 min, based on the uptake capacity of carretels. The stalks were treated simulating a furrow application at 100 L.ha^−1 of slurry. Experimental design adopted was randomized complete block with four replications. The pots were maintained with adequate moisture during the test. Evaluations of: plant height, leaf width, culm diameter and number of tillers were done at 20, 30 and 42 days after planting.

[4] = tested on: sugar cane Variety RB 86-7515; experiment: Greenhouse pot test, effect of formulated thiamethoxam on vigour; settings: result in words
Experimental: This trial was conducted on Variety RB 86-7515.

[5] = tested on: sugar cane Variety RB 86-7515; experiment: Greenhouse pot test, effect of formulated abamectin on vigour
Experimental: Greenhouse test with sugarcane buds growing in pots were conducted to study the effect of formulated abamectin regarding “vigour”, tillers, plant height, leaf width and culm diameter on sugar cane Variety RB 86-7515.
1) carretel with one bud treated with abamectin 2) carretel with one bud treated with abamectin+15% v/v of polymer 3) stalk with 3 buds untreated 4) carretel with one bud untreated 5) carretel with one bud untreated+15% v/v of polymer 6) stalk with 3 buds treated with abamectin.
Twenty 1 L pots were filled with 16 L of clay soil, 1.6 L of sand and 8 g of nitrogen, 28 g of phosphorus (P2O5) and 16 g of potassium (K2O). Six carretels of 4 cm length with only one bud were planted in each pot (treatments 1, 2, 4 and 5). Two stalks with three buds were planted in each control pot (treatments 3 and 6) to simulate conventional planting. A layer of 3 cm of soil was used to cover the carretels. The carretels of treatments 1, 2 were treated with 200 ml/ha of abamectin, by dipping the carretels in the slurry for 3 min, based on the uptake capacity of carretels. The stalks were treated simulating a furrow application at 100 L.ha^−1 of slurry. Experimental design adopted was randomized complete block with four replications. The pots were maintained with adequate moisture during the test. Evaluations of: plant height, leaf width, culm diameter and number of tillers were done at 20, 30 and 42 days after planting.

With `CN/C(=N\[N+](=O)[O-])NCc1cnc(Cl)s1` [Clothianidin, clothianidin] the “number of tillers in comparison with the corresponding control experiment (untreated, one-bud)” value [1] was “increased” and the “plant height in comparison with the corresponding control experiment (untreated, one-bud)” value [1] was “slight reduction”.

For `N#Cc1nn(-c2c(Cl)cc(C(F)(F)F)cc2Cl)c(N)c1[S+]([O-])C(F)(F)F` (stereo not drawn) [Fipronil, fipronil], the “height of the resultant plants in comparison with the control” value [2] was “decreased” and the “number of tillers in comparison with the control” value (“number … with the control” for short) [2] was “increased”.

For `O=[N+]([O-])NC1=NCCN1Cc1ccc(Cl)nc1` [Imidacloprid, imidacloprid], the “number … with the control” value [3] was “increase” and the “size of the effect compared with the other active ingredients” value [3] was “less pronounced than with the other active ingredients”.

For `CN1COCN(Cc2cnc(Cl)s2)/C1=N\[N+](=O)[O-]` [Thiamethoxam, thiamethoxam], the “number of tillers in comparison with the corresponding controls” value ([4]; carretels) was “increased”, the “plant height in comparison with the corresponding controls” value ([4]; carretels) was “reduced” and the “overall "quality" compared with the other treatments” value ([4]; practical assessment, not apparent from the listed parameters) was “increase in “quality” greater than the other treatments”.

For abamectin, the Tillers ([5]; Carretel with one bud, 100 g ai/ha, dipped in slurry 3 min, 42 days after planting) was 14 number, the “number … with the control” value ([5]; result in words) was “increase” and the “plant height in comparison with the control” value ([5]; result in words) was “decrease”.
